Source: US11633484B2, “Method for improving the oral bioavailability of a drug” (PharmaCytics B.V., priority 2017, dated 2023)

Columns and labels:
xenograft mouse model = conditions: oral administration; cited from earlier work
[1] = oral administration, rat; cited from earlier work
[2] = Determination of oral bioavailability of Abiraterone conjugates (plasma AUClast after oral gavage); assay type: in vivo; parameters: key to AUClast (total amount abiraterone and conjugate): AUClast value for Zytiga; +: 1.1-6-fold increase compared to Zytiga; ++: >7-fold increase compared to Zytiga; conditions: female Beagle dogs; for AUClast (total amount abiraterone and conjugate): single dose 15 μmole/kg by oral gavage, 24 h, fold increase compared to Zytiga; for Conversion rate to Abiraterone: AUClast Abiraterone/AUClast conjugate + AUClast Abiraterone × 100%, oral 15 μmole/kg
Procedure: (§1) Relative and absolute bioavailability may be determined in different animal models and according to different protocols. The following protocol is typical for determining bioavailability in female Beagle dogs. The animals were deprived from food over a time period of 8 h prior to administration and 2 h after administration of the test molecules. Water was supplied without limitation.
(§2) On the study day, the animals received test molecules, at a single dose of 15 μmole/kg, by oral gavage, formulated in mixtures of propylene glycol, ethanol and 0.9% NaCl+5% mannitol in water. Blood samples were collected from the jugular vein on the following time points: 0.25, 0.5, 1, 2, 4, 8 and 24 hours after dosing.
(§3) Pharmacokinetic parameters were calculated from concentration versus time data using non-compartmental pharmacokinetic methods using Phoenix pharmacokinetic software. Data are compared to Zytiga to establish improvement of its oral bioavailability by the Abiraterone conjugates.

β-glucosidase = test: Enzymatic removal of the glucose moiety (treatment with β-glucosidase), conversion to parent drug
[3] = Determination of oral bioavailability of Kalydeco conjugates; assay type: in vivo, Beagle dogs; parameters: key to AUClast (total amount Kalydeco and conjugate): AUClast value for Kalydeco; +: 1.1-6-fold increase compared to Kalydeco; conditions: for AUClast (total amount Kalydeco and conjugate): as Example 11 (Beagle dogs, oral gavage), fold increase compared to Kalydeco
Procedure: as §1, §2, §3
In a similar fashion as described in Example 11, the bioavailability increase of Kalydeco conjugate 17 was determined.

[4] = Determination of oral bioavailability of Rotigotine conjugate; assay type: in vivo, Beagle dogs; parameters: key to AUClast (total amount Rotigotine and conjugate): AUClast value for Rotigotine; ++: >6-fold increase compared to Rotigotine; conditions: for AUClast (total amount Rotigotine and conjugate): as Example 11 (Beagle dogs, oral gavage), fold increase compared to Rotigotine
Procedure: as §1, §2, §3
In a similar fashion as described in Example 11, the bioavailability increase of Rotigotine conjugate 28 was determined.

[5] = orally administered; cited from earlier work
[6] = oral application in rat; cited from earlier work

SMILES	AUClast (total amount abiraterone and conjugate) [2]	Conversion rate to Abiraterone [2]	other results
COc1cc(C)c2cc(O[C@@H]3O[C@H](CO)[C@@H](O)[C@H](O)[C@H]3O)c(C)cc2c1C(C)C	–	–	Reduction of tumor volume (xenograft mouse model): 50%
CO[C@@H]1O[C@H](COC(=O)NC(N)=NC(=O)Cc2c(Cl)cccc2Cl)[C@@H](O)[C@H](O)[C@H]1O	–	–	Relative Cmax compared to guanfacine [1]: lower value
CC(=O)O[C@H]1CC[C@@]2(C)C(=CC[C@@H]3[C@@H]2CC[C@]2(C)C(c4cccnc4)=CC[C@@H]32)C1 [3-O-Acetate (Zytiga), reference compound]	o	–	–
C[C@]12CC[C@H](O[C@@H]3O[C@H](CO)[C@@H](O)[C@H](O)[C@H]3O)CC1=CCC1[C@@H]2CC[C@]2(C)C(c3cccnc3)=CC[C@@H]12 (stereo partly drawn) [3-O-β-Glucoside (33), 3-O-β-D-Glucopyranosyl-abiraterone, reference compound]	+ (1.1-6-fold increase compared to Zytiga)	+ (1-20%)	–
COc1cc(C)c2cc(O)c(C)cc2c1C(C)C [7-hydroxy-3-methoxy cadalene]	–	–	Reduction of tumor volume (xenograft mouse model): did not show tumor volume reduction
CN(CO[C@H]1CC[C@@]2(C)C(=CCC3[C@@H]2CC[C@]2(C)C(c4cccnc4)=CC[C@@H]32)C1)C(=O)O[C@@H]1O[C@H](CO)C(O)[C@H](O)C1O (stereo partly drawn) [Compound 7a]	–	+++ (41-50%)	–
CCN(CO[C@H]1CC[C@@]2(C)C(=CCC3[C@@H]2CC[C@]2(C)C(c4cccnc4)=CC[C@@H]32)C1)C(=O)O[C@@H]1O[C@H](CO)C(O)[C@H](O)C1O (stereo partly drawn) [Compound 7b]	+ (1.1-6-fold increase compared to Zytiga)	++++ (>51%)	–
CCCN(CO[C@H]1CC[C@@]2(C)C(=CCC3[C@@H]2CC[C@]2(C)C(c4cccnc4)=CC[C@@H]32)C1)C(=O)O[C@@H]1O[C@H](CO)C(O)[C@H](O)C1O (stereo partly drawn) [Compound 7c]	++ (>7-fold increase compared to Zytiga)	+++ (41-50%)	Conversion to Abiraterone and Kalydeco, respectively, upon treatment with β-glucosidase (β-glucosidase): readily converted
C[C@]12CC[C@H](OCN(C(=O)O[C@@H]3O[C@H](CO)C(O)[C@H](O)C3O)C3CCC3)CC1=CCC1[C@@H]2CC[C@]2(C)C(c3cccnc3)=CC[C@@H]12 (stereo partly drawn) [Compound 7g]	++ (>7-fold increase compared to Zytiga)	++ (21-40%)	–
C=CCN(CO[C@H]1CC[C@@]2(C)C(=CCC3[C@@H]2CC[C@]2(C)C(c4cccnc4)=CC[C@@H]32)C1)C(=O)O[C@@H]1O[C@H](CO)C(O)[C@H](O)C1O (stereo partly drawn) [Compound 7l]	++ (>7-fold increase compared to Zytiga)	+++ (41-50%)	–
CN(CO[C@H]1CC[C@@]2(C)C(=CCC3[C@@H]2CC[C@]2(C)C(c4cccnc4)=CC[C@@H]32)C1)C(=O)O[C@@H]1O[C@H](CO)C(O)[C@H](O)C1O (stereo partly drawn) [Compound 13]	++ (>7-fold increase compared to Zytiga)	++ (21-40%)	–
CCCN(COc1cc(NC(=O)c2c[nH]c3ccccc3c2=O)c(C(C)(C)C)cc1C(C)(C)C)C(=O)O[C@@H]1O[C@H](CO)[C@@H](O)[C@H](O)[C@H]1O [Compound 17]	–	–	Conversion rate to Kalydeco ([3]; AUClast Kalydeco/AUClast conjugate + AUClast Kalydeco × 100%, as Example 11): ++++ (>51%); AUClast (total amount Kalydeco and conjugate) [3]: + (1.1-6-fold increase compared to Kalydeco); Conversion to Abiraterone and Kalydeco, respectively, upon treatment with β-glucosidase (β-glucosidase): readily converted
CCCN(COc1cccc2c1CC[C@H](N(CCC)CCc1cccs1)C2)C(=O)O[C@@H]1O[C@H](CO)[C@@H](O)[C@H](O)[C@H]1O [Compound 28]	–	–	Conversion rate to Rotigotine ([4]; AUClast Rotigotine/(AUClast conjugate + AUClast Rotigotine) × 100%, as Example 11): ++++ (>51%); AUClast (total amount Rotigotine and conjugate) [4]: ++ (>6-fold increase compared to Rotigotine)
CC(C)(C)c1cc(C(C)(C)C)c(NC(=O)c2c[nH]c3ccccc3c2=O)cc1O [Kalydeco, reference compound]	–	–	AUClast (total amount Kalydeco and conjugate) [3]: o
CCCN(CCc1cccs1)[C@H]1CCc2c(O)cccc2C1 [Rotigotine, reference compound]	–	–	AUClast (total amount Rotigotine and conjugate) [4]: o
C[C@@H]1C[C@H]2[C@@H]3CCC4=CC(=O)C=C[C@]4(C)[C@@]3(F)[C@@H](O)C[C@]2(C)[C@@]1(O)C(=O)COC1O[C@H](CO)[C@@H](O)[C@H](O)[C@H]1O (stereo partly drawn) [dexamethasone glucoside]	–	–	Fraction of oral dose that reached the caecum as a free steroid [5]: ~60%
C[C@]12C=CC(=O)C=C1CC[C@@H]1[C@@H]2[C@@H](O)C[C@@]2(C)[C@H]1CC[C@]2(O)C(=O)CO[C@@H]1O[C@H](CO)[C@@H](O)[C@H](O)[C@H]1O [prednisolone-21-O-β-D-glucoside]	–	–	Increase of serum levels with respect to prednisolone [6]: two-fold increase
